Laboratory results reported in US11660339B2, “Methods of treating cancer using compositions of antibodies and carrier proteins with antibody pretreatment” (Mayo Foundation for Medical Education and Research, priority 2015, dated 2023).

Tested on: A375 human melanoma cells
Experiment: A375 human melanoma xenograft in athymic nude mice: tumor volume and survival
Type: in vivo
Source text: Data is represented as tumor volume in mm^3.
Survival was again assessed at day 40.

## bevacizumab
12 mg/kg BEV alone, 1.2 mg/kg BEV pretreatment before AB160
  therapeutic effect in the experiment (in words): not therapeutic
Day 15 post treatment, 12 mg/kg BEV, 30 mg/kg ABX, AB160, or 1.2 mg/kg BEV 24 hr before AB160
  Percent Alive on day 15: 0%
Survival assessed at day 40
  median survival: 7 days
